Laboratory results: the supplement of paper PMC10331698
± gives the standard deviation of the averaged measurements.

Assays:
Assay in all cases: level (log10 ratio to DMSO vehicle control); higher = higher biomarker level / cell amount than vehicle control
Settings in all cases: in DMSO
[1] = compound: OCC(F)(F)C(F)(F)C(F)(F)C(F)(F)C(F)(F)C(F)(F)F [6:1 Fluorotelomer alcohol]
Protocol: (§1)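 BioMAP Diversity Plus panel of 12 human primary cell co-culture systems (3C, 4H, LPS, SAg, BT, BF4T, BE3C, CASM3C, HDF3CGF, KF3CT, MyoF, Mphg). Compounds were added 1 h before stimulation and left for 24 h (MyoF 48 h; BT 72 h for soluble read-outs or 6 d for IgG). Biomarkers were read by ELISA, cytotoxicity by SRB, PBMC viability and proliferation by Alamar Blue. Each well value was divided by the mean of 8 DMSO control wells on the same plate and log10 transformed; duplicate blinded samples were tested at 4 concentrations.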

[2] = compound: Cc1ccc(S(=O)(=O)OCC(F)(F)C(F)(F)C(F)(F)C(F)(F)C(F)(F)C(F)F)cc1 [1H,1H,7H-Perfluoroheptyl 4-methylbenzenesulfonate]
Protocol: as §1

[3] = compound: O=C(Cl)C(F)(F)C(F)(F)C(F)(F)C(=O)Cl [Hexafluoroglutaryl chloride]
Protocol: as §1

[4] = compound: C=C(C)C(=O)OCC(F)(F)C(F)(F)C(F)(F)F [2,2,3,3,4,4,4-Heptafluorobutyl methacrylate]
Protocol: as §1

[5] = compound: OCC(F)(F)C(F)(F)C(F)(F)C(F)(F)C(F)(F)C(F)(F)C(F)(F)C(F)(F)CO [1H,1H,10H,10H-Perfluorodecane-1,10-diol]
Protocol: as §1

[6] = compound: FC(F)(F)C(F)(F)C(F)(F)C(F)(F)CCI [1H,1H,2H,2H-Perfluorohexyl iodide]
Protocol: as §1

Test System | level (log10) ([1]; 6700 nM) | level (log10) ([1]; 20000 nM) | level (log10) ([1]; 60000 nM) | level (log10) ([2]; 6700 nM) | level (log10) ([2]; 20000 nM) | level (log10) ([2]; 60000 nM) | level (log10) ([3]; 6700 nM) | level (log10) ([3]; 20000 nM) | level (log10) ([3]; 60000 nM) | level (log10) ([4]; 6700 nM) | level (log10) ([4]; 20000 nM) | level (log10) ([4]; 60000 nM) | level (log10) ([5]; 6700 nM) | level (log10) ([5]; 20000 nM) | level (log10) ([5]; 60000 nM) | level (log10) ([6]; 6700 nM) | level (log10) ([6]; 20000 nM) | level (log10) ([6]; 60000 nM)
SAg:Proliferation | -0.0075 ± 0.005 | -0.0455 ± 0.0035 | -0.0325 ± 0.13 | -0.0085 ± 0.07 | -0.011 ± 0.0085 | -0.0335 ± 0.086 | 0.0165 ± 0.026 | 0.0255 ± 0.013 | 0.001 ± 0.013 | -0.042 ± 0.069 | -0.004 ± 0.03 | -0.0045 ± 0.033 | -0.0135 ± 0.025 | -0.058 ± 0.013 | -0.048 | -0.0205 ± 0.0078 | -0.043 ± 0.013 | -0.155 ± 0.014
BT:PBMC Cytotoxicity | 0.017 ± 0.025 | 0.011 ± 0.037 | -0.082 ± 0.03 | -0.017 ± 0.0057 | 0.008 ± 0.0014 | -0.017 | -0.0035 ± 0.039 | -0.019 ± 0.04 | -0.022 ± 0.016 | 0.0065 ± 0.035 | 0.005 ± 0.03 | 0.004 ± 0.055 | 0.0065 ± 0.026 | -0.012 ± 0.0085 | -0.246 | -0.024 ± 0.0014 | -0.042 ± 0.0099 | -0.0045 ± 0.029
BT:sIL-2 | 0.0235 ± 0.028 | -0.012 ± 0.075 | -0.289 ± 0.081 | 0.0615 ± 0.0021 | 0.0305 ± 0.042 | -0.0025 ± 0.14 | -0.0205 ± 0.07 | -0.001 ± 0.1 | 0.0415 ± 0.066 | 0.0115 ± 0.035 | 0.026 ± 0.082 | -0.0115 ± 0.042 | 0.002 ± 0.035 | 0.0135 ± 0.005 | -0.482 | 0.0565 ± 0.029 | -0.0065 ± 0.0021 | -0.056 ± 0.057
BF4T:CCL26/Eotaxin-3 | 0.0385 ± 0.026 | 0.0185 ± 0.022 | 0.0445 ± 0.03 | -0.0095 ± 0.046 | -0.077 ± 0.068 | -0.095 ± 0.018 | 0.023 ± 0.031 | 0.017 ± 0.033 | 0.035 ± 0.045 | 0.032 ± 0.069 | 0.0385 ± 0.05 | 0.0235 ± 0.052 | -0.0415 ± 0.042 | -0.134 ± 0.0021 | -0.255 | -0.032 ± 0.017 | -0.0525 ± 0.036 | -0.098 ± 0.073
LPS:CD62E/E-Selectin | 0.001 ± 0.018 | -0.013 ± 0.011 | -0.014 ± 0.0071 | 0.001 ± 0.0057 | 0.012 ± 0.027 | 0.0375 ± 0.0078 | 0.0025 ± 0.0035 | 0.003 ± 0.02 | 0.038 ± 0.031 | 0.001 ± 0.0071 | 0.0075 ± 0.026 | -0.0015 ± 0.0035 | -0.064 ± 0.04 | -0.0475 ± 0.0021 | -0.038 | 0.0035 ± 0.022 | -0.0105 ± 0.018 | -0.0095 ± 0.012
LPS:CXCL8/IL-8 | 0.002 ± 0.011 | -0.007 ± 0.018 | 0.0235 ± 0.0021 | 0.0265 ± 0.015 | 0.008 ± 0.014 | 0.0195 ± 0.0021 | -0.0295 ± 0.00071 | 0 ± 0.037 | -0.0035 ± 0.043 | -0.001 ± 0.016 | 0.0055 ± 0.012 | 0.0145 ± 0.0092 | -0.0065 ± 0.023 | 0.006 ± 0.0042 | 0.051 | 0.008 ± 0.034 | 0.021 ± 0.033 | 0.0375 ± 0.057
BF4T:MMP-1 | 0.002 ± 0.014 | 0.0025 ± 0.0078 | -0.011 ± 0.0028 | 0.0105 ± 0.046 | -0.018 ± 0.038 | 0.013 ± 0.037 | -0.0125 ± 0.018 | 0.003 ± 0.0028 | 0 ± 0.017 | 0.009 ± 0.018 | -0.001 ± 0.013 | 0.009 ± 0.0057 | -0.003 ± 0.011 | -0.0505 ± 0.011 | -0.007 | 0.007 ± 0.024 | 0.0105 ± 0.029 | 0.015 ± 0.051
